This note sets out measurements from US20260144788A1, “COMPOUND FOR SHP2 PROTEIN DEGRADATION AND MEDICAL USES THEREOF” (UBIX THERAPEUTICS, INC., priority 2022, published 2026).

Each structure is given as a SMILES string.

The target in the assay is T1, SHP2 protein (Homo sapiens, UniProt Q06124).
T1 sequence (Q06124 1-593): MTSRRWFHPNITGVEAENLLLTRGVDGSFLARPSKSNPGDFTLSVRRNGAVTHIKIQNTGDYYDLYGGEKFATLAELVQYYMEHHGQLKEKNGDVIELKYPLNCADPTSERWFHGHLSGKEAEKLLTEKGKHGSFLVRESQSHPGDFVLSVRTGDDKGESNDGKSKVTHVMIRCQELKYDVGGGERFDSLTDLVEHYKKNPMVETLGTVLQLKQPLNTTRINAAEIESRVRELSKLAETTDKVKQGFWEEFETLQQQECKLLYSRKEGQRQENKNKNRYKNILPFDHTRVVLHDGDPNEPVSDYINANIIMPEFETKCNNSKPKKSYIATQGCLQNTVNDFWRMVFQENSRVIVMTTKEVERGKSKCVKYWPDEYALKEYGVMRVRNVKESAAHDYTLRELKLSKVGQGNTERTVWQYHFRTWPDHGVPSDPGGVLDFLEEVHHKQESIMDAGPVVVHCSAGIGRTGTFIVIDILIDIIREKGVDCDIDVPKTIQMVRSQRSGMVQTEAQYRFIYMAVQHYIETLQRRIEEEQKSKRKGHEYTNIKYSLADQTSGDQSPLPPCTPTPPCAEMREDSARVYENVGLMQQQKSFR
Nature of the assay: Measurement of SHP2 protein degradation in MV-4-11 cells (western blotting). The format is cell-based. On the set-up: endogenous in cells. The note with it: harvested after 24 hours. The method in brief:
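MV-4-11 cells in IMDM/5% FBS were exposed to compound at final 0.01, 0.1, 1 μM or 0.001, 0.01, 0.1 μM for 24 h, DMSO as negative control. BCA-normalised lysates were immunoblotted for SHP2 with GAPDH as loading control, read on LI-COR Odyssey.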
(Immunoblotting shows a protein as a band on a membrane.)

Turning to `Cc1ncsc1-c1ccc(CNC(=O)[C@@H]2C[C@@H](O)CN2C(=O)[C@@H](NC(=O)C2(F)CC2)C(C)(C)C)c(OC2CC3(CCN(C(=O)C4CCN(c5nccc(Sc6cnc(N7CCC(C)(CN)CC7)cn6)c5Cl)CC4)CC3)C2)c1` [Example 57, (2S,4R)—N-(2-((7-(1-(4-((5-(4-(aminomethyl)-4-methylpiperidin-1-yl)pyrazin-2-yl)thio)-3-chloropyridin-2-yl)piperidine-4-carbonyl)-7-azaspiro[3.5]nonan-2-yl)oxy)-4-(4-methylthiazol-5-yl)benzyl)-1-((S)-2-(1-fluorocyclopropane-1-carboxamido)-3,3-dimethylbutanoyl)-4-hydroxypyrrolidine-2-carboxamide], the SHP2% degradation runs as follows: (0.01 μM) 65.7%; (0.1 μM) 96.8%.
The like results for `Cc1ncsc1-c1ccc(CNC(=O)[C@@H]2C[C@@H](O)CN2C(=O)[C@@H](NC(=O)C2(F)CC2)C(C)(C)C)c(OCC2CCN(C(=O)C3CCN(c4nccc(Sc5cnc(N6CCC(C)(CN)CC6)cn5)c4Cl)CC3)CC2)c1` [Example 58, (2S,4R)—N-(2-((1-(1-(4-((5-(4-(aminomethyl)-4-methylpiperidin-1-yl)pyrazin-2-yl)thio)-3-chloropyridin-2-yl)piperidine-4-carbonyl)piperidin-4-yl)methoxy)-4-(4-methylthiazol-5-yl)benzyl)-1-((S)-2-(1-fluorocyclopropane-1-carboxamido)-3,3-dimethylbutanoyl)-4-hydroxypyrrolidine-2-carboxamide] were, in that order, 82.0% and 97.7%.
On to `Cc1ncsc1-c1ccc(CNC(=O)[C@@H]2C[C@@H](O)CN2C(=O)[C@@H](NC(=O)C2(F)CC2)C(C)(C)C)c(OC2CCN(C(=O)[C@H]3C[C@@H](Nc4nccc(Sc5cnc(N6CCC(C)(CN)CC6)cn5)c4Cl)C3)CC2)c1` [Example 59, (2S,4R)—N-(2-((1-((1s,3R)-3-((4-((5-(4-(aminomethyl)-4-methylpiperidin-1-yl)pyrazin-2-yl)thio)-3-chloropyridin-2-yl)amino)cyclobutanecarbonyl)piperidin-4-yl)oxy)-4-(4-methylthiazol-5-yl)benzyl)-1-((S)-2-(1-fluorocyclopropane-1-carboxamido)-3,3-dimethylbutanoyl)-4-hydroxypyrrolidine-2-carboxamide], for which the SHP2% degradation turned out to be 81.7% (0.01 μM) and 99.5% (0.1 μM).
In the case of `Cc1ncsc1-c1ccc(CNC(=O)[C@@H]2C[C@@H](O)CN2C(=O)[C@@H](NC(=O)C2(F)CC2)C(C)(C)C)c(OC2CCN(C(=O)[C@H]3C[C@@H](Nc4nccc(Sc5cnc(N6CCC(C)(N)CC6)cn5)c4Cl)C3)CC2)c1` [Example 60, (2S,4R)—N-(2-((1-((1S,3R)-3-((4-((5-(4-amino-4-methylpiperidin-1-yl)pyrazin-2-yl)thio)-3-chloropyridin-2-yl)amino)cyclobutanecarbonyl)piperidin-4-yl)oxy)-4-(4-methylthiazol-5-yl)benzyl)-1-((S)-2-(1-fluorocyclopropane-1-carboxamido)-3,3-dimethylbutanoyl)-4-hydroxypyrrolidine-2-carboxamide], the SHP2% degradation was 81.5% (0.01 μM) and 99.3% (0.1 μM).
With `Cc1ncsc1-c1ccc(CNC(=O)[C@@H]2C[C@@H](O)CN2C(=O)[C@@H](NC(=O)C2(F)CC2)C(C)(C)C)c(OC2CCN(C(=O)[C@H]3C[C@H](Nc4nccc(Sc5cnc(N6CCC(C)(CN)CC6)cn5)c4Cl)C3)CC2)c1` [Example 61, (2S,4R)—N-(2-((1-((1r,3S)-3-((4-((5-(4-(aminomethyl)-4-methylpiperidin-1-yl)pyrazin-2-yl)thio)-3-chloropyridin-2-yl)amino)cyclobutanecarbonyl)piperidin-4-yl)oxy)-4-(4-methylthiazol-5-yl)benzyl)-1-((S)-2-(1-fluorocyclopropane-1-carboxamido)-3,3-dimethylbutanoyl)-4-hydroxypyrrolidine-2-carboxamide], the SHP2% degradation reads like this: (0.01 μM) 80.3%; (0.1 μM) 99.3%.
